Test results as given in ChEMBL document CHEMBL1201862, “PubChem BioAssay data set” (2004).
“And” between values parts separate entries of the source, which are not always exact repeats. Equal entries are not always repeated.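 Step 1: Grow cells in 96-well plates. Step 2: Expose to compound for 48 hours at 5 concentrations. Step 3: Interpolate endpoints linearly; if unreached, use highest concentration. GI50: concentration for 50% inhibition of growth.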 The source made the active and inactive calls. No stated cut-off is given here; in the data, active = GI50 up to about 1.1 µM and inactive = higher.

Tests used:
Test in all cases: growth of human tumour cells (NCI), 48 h
[1] = tested on: Malme-3M
[2] = tested on: UACC-257
[3] = tested on: HOP-18
[4] = tested on: KM-20L2
[5] = tested on: A498
[6] = tested on: NCI-H23
[7] = tested on: K562
[8] = tested on: DLD-1
[9] = tested on: LXFL 529
[10] = tested on: CAKI-1
[11] = tested on: DMS-273
[12] = tested on: HCC 2998
[13] = tested on: SF-295
[14] = tested on: OVCAR-5
[15] = tested on: SK-MEL-2
[16] = tested on: TK-10
[17] = tested on: M19-MEL
[18] = tested on: MOLT-4
[19] = tested on: UO-31
[20] = tested on: SK-MEL-5
[21] = tested on: HT-29
[22] = tested on: M14
[23] = tested on: SW-620
[24] = tested on: IGROV-1
[25] = tested on: RXF 393
[26] = tested on: U-251
[27] = tested on: DMS-114
[28] = tested on: COLO 205
[29] = tested on: OVCAR-8
[30] = tested on: NCI-H522
[31] = tested on: UACC-62
[32] = tested on: ACHN
[33] = tested on: NCI-H460
[34] = tested on: HCT-116
[35] = tested on: SF-268
[36] = tested on: SK-MEL-28
[37] = tested on: EKVX
[38] = tested on: 786-0
[39] = tested on: SK-OV-3
[40] = tested on: SNB-19
[41] = tested on: HOP-92
[42] = tested on: XF498
[43] = tested on: KM12
[44] = tested on: SNB-75
[45] = tested on: OVCAR-3
[46] = tested on: CCRF-CEM
[47] = tested on: HCT-15
[48] = tested on: SN12C
[49] = tested on: SNB-78
[50] = tested on: NCI-H226
[51] = tested on: A549
[52] = tested on: LOX IMVI
[53] = tested on: SF-539
[54] = tested on: RPMI-8226
[55] = tested on: HOP-62
[56] = tested on: OVCAR-4
[57] = tested on: NCI/ADR-RES
[58] = tested on: HL-60
[59] = tested on: MCF7
[60] = tested on: T47D
[61] = tested on: MDA-MB-231
[62] = tested on: MDA-N
[63] = tested on: PC-3
[64] = tested on: Hs-578T
[65] = tested on: RXF 631
[66] = tested on: DU-145

NC(=O)CCC(NC(=O)C(F)(F)F)C(=O)O (configuration not stated)
GI50 [1]: > 100 µM (inactive) | GI50 [2]: > 100 µM (inactive) | GI50 [3]: > 100 µM (inactive) | GI50 [4]: > 100 µM (inactive) | GI50 [5]: > 100 µM (inactive) | GI50 [6]: > 100 µM (inactive) | GI50 [7]: > 100 µM (inactive) | GI50 [8]: > 100 µM (inactive) | GI50 [9]: > 100 µM (inactive) | GI50 [10]: > 100 µM (inactive) | GI50 [11]: > 100 µM (inactive) | GI50 [12]: > 100 µM (inactive) | GI50 [13]: > 100 µM (inactive) | GI50 [14]: > 100 µM (inactive) | GI50 [15]: > 100 µM (inactive) | GI50 [16]: > 100 µM (inactive) | GI50 [17]: > 100 µM (inactive) | GI50 [18]: > 100 µM (inactive) | GI50 [19]: > 100 µM (inactive) | GI50 [20]: > 100 µM (inactive) | GI50 [21]: > 100 µM (inactive) | GI50 [22]: > 100 µM (inactive) | GI50 [23]: > 100 µM (inactive) | GI50 [24]: > 100 µM (inactive) | GI50 [25]: > 100 µM (inactive) | GI50 [26]: > 100 µM (inactive) | GI50 [27]: > 100 µM (inactive) | GI50 [28]: > 100 µM (inactive) | GI50 [29]: > 100 µM (inactive) | GI50 [30]: > 100 µM (inactive) | GI50 [31]: > 100 µM (inactive) | GI50 [32]: > 100 µM (inactive) | GI50 [33]: > 100 µM (inactive) | GI50 [34]: > 100 µM (inactive) | GI50 [35]: > 100 µM (inactive) | GI50 [36]: > 100 µM (inactive) | GI50 [37]: > 100 µM (inactive) | GI50 [38]: > 100 µM (inactive) | GI50 [39]: > 100 µM (inactive) | GI50 [40]: > 100 µM (inactive) | GI50 [41]: > 100 µM (inactive) | GI50 [42]: > 100 µM (inactive) | GI50 [43]: > 100 µM (inactive) | GI50 [44]: > 100 µM (inactive) | GI50 [45]: > 100 µM (inactive) | GI50 [46]: > 100 µM (inactive) | GI50 [47]: > 100 µM | GI50 [48]: > 100 µM (inactive) | GI50 [49]: > 100 µM (inactive) | GI50 [50]: > 100 µM (inactive) | GI50 [51]: > 100 µM (inactive) | GI50 [52]: > 100 µM (inactive) | GI50 [53]: > 100 µM (inactive) | GI50 [54]: > 100 µM (inactive) | GI50 [55]: > 100 µM (inactive) | GI50 [56]: > 100 µM (inactive)

CC(O)C(O)C(N)CC=O (configuration not stated)
GI50 [1]: > 500 µM (inactive) | GI50 [2]: > 500 µM (inactive) | GI50 [3]: > 500 µM (inactive) | GI50 [4]: > 500 µM (inactive) | GI50 [5]: 36.1 µM (inactive) | GI50 [6]: > 500 µM (inactive) | GI50 [7]: > 500 µM (inactive) | GI50 [8]: > 500 µM (inactive) | GI50 [10]: > 500 µM (inactive) | GI50 [11]: > 500 µM (inactive) | GI50 [12]: > 500 µM (inactive) | GI50 [13]: > 500 µM (inactive) | GI50 [14]: 175 µM (inactive) | GI50 [15]: > 500 µM (inactive) | GI50 [57]: > 500 µM (inactive) | GI50 [17]: > 500 µM (inactive) | GI50 [18]: > 500 µM (inactive) | GI50 [19]: > 500 µM (inactive) | GI50 [20]: > 500 µM (inactive) | GI50 [21]: > 500 µM (inactive) | GI50 [23]: > 158 µM (inactive) | GI50 [24]: > 500 µM (inactive) | GI50 [25]: > 500 µM (inactive) | GI50 [26]: > 500 µM (inactive) | GI50 [27]: > 500 µM (inactive) | GI50 [28]: > 500 µM (inactive) | GI50 [29]: > 500 µM (inactive) | GI50 [30]: 79.3 µM (inactive) | GI50 [31]: > 500 µM (inactive) | GI50 [33]: > 500 µM (inactive) | GI50 [34]: > 500 µM (inactive) | GI50 [35]: > 500 µM (inactive) | GI50 [58]: 495 µM (inactive) | GI50 [36]: > 500 µM (inactive) | GI50 [37]: 491 µM (inactive) | GI50 [39]: > 500 µM (inactive) | GI50 [40]: > 500 µM (inactive) | GI50 [59]: > 500 µM (inactive) | GI50 [41]: > 500 µM (inactive) | GI50 [42]: > 129 µM (inactive) | GI50 [43]: > 500 µM (inactive) | GI50 [44]: > 500 µM (inactive) | GI50 [45]: > 500 µM (inactive) | GI50 [46]: > 500 µM (inactive) | GI50 [47]: > 500 µM | GI50 [48]: > 500 µM (inactive) | GI50 [49]: > 482 µM (inactive) | GI50 [50]: > 500 µM (inactive) | GI50 [51]: > 500 µM (inactive) | GI50 [52]: 499 µM (inactive) | GI50 [53]: > 500 µM (inactive) | GI50 [54]: > 500 µM (inactive) | GI50 [55]: > 500 µM (inactive) | GI50 [56]: > 500 µM (inactive)

CC1(C)CC[C@H](C2=CC(=O)c3c(O)ccc(O)c3C2=O)O1
GI50 [60]: 460 nM (active) and 470 nM (active) | GI50 [61]: 2.44 µM (inactive) and 1.48 µM (inactive) | GI50 [62]: 577 nM (active) and 904 nM (active) | GI50 [57]: 2.79 µM (inactive) | GI50 [27]: 359 nM (active) and 200 nM (active) | GI50 [63]: 2.86 µM (inactive) and 1.71 µM (inactive) | GI50 [64]: 2.64 µM (inactive) and 2.74 µM (inactive) | GI50 [65]: 1.15 µM (inactive) | GI50 [39]: 8.05 µM (inactive) and 4.24 µM (inactive) | GI50 [59]: 173 nM (active) and 216 nM (active) | GI50 [66]: 2.4 µM (inactive) and 2.09 µM (inactive) | GI50 [55]: 4.61 µM (inactive) and 2.72 µM (inactive)
